pIC50: −log10 of the molar value. Read-outs that look alike come from different tables or passages of the source.
Tests used:
[1] = tested on: KM12 cells; experiment: KM12 cell viability (CellTiter-Glo); assay type: cell-based; conditions: for pIC50: Homo sapiens
Method in brief: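 Three-day exposure of KM12 cells (5000/well, RPMI 1640 with 10% FBS, 37 °C, 5% CO2) to compound dilution series, 3-fold over 8 or 11 points (top 1000 nM in the 8-point format) or 2-fold over 12. CellTiter-Glo readout, with IC50 fitted by nonlinear least-squares regression.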

[2] = target: T1, TPM3-TRKA fusion protein (Homo sapiens, UniProt P04629); experiment: TPM3-TRKA fusion protein levels in KM12 cells (Western blot); assay type: cell-based; conditions: read-out: Degradation (at 10 nM)
T1 construct: The resulted chimeric proteins always retain the kinase domain of TRK proteins; TPM3 (fusion partner, N-terminal part of tropomyosin alpha-3, P06753); endogenous in cells; host or cells: KM12 colon cancer cells; the other entry of the earlier key: TPM3 (P06753, Tropomyosin alpha-3 chain)
T1 sequence (P04629 with tags, fused parts or gaps): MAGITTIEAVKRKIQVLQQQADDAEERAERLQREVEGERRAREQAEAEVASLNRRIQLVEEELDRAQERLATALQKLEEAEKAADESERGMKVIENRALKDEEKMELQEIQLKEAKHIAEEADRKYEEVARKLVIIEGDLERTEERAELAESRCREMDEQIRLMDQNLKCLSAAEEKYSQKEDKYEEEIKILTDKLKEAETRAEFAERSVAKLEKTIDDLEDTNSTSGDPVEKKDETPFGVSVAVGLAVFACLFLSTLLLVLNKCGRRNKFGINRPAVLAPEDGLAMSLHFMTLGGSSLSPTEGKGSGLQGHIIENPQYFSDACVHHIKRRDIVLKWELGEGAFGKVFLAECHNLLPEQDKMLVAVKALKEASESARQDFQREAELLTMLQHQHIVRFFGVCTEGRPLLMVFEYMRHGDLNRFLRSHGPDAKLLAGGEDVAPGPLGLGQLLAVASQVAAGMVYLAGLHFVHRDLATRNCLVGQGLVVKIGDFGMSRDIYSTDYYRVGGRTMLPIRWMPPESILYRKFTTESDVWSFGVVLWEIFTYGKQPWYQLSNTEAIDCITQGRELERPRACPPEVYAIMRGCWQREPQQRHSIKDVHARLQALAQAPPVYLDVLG
Method in brief: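 TPM3-TRKA levels were assessed by Western blot with chemiluminescent detection and band densitometry, after SDS-PAGE of BCA-normalized RIPA lysates. Before lysis, KM12 cells received DMSO, compounds or matched control compounds at concentrations including 0.1, 1, 10 and 100 nM and 0.4–30 nM. Exposures lasted 4 h, 8–16 h or 16 h.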

[3] = 72 h, KM12 cell viability, 11-point 3-fold serial dilution, 3 days, CellTiter-Glo, read-out: IC50
[4] = 16 h, TPM3-TRKA degradation in KM12 cells at 10 nM
[5] = 72 h, KM12 cell viability, CellTiter-Glo, three days treatment, read-out: IC50
[6] = 16 h, TPM3-TRKA degradation in KM12 cells at 10 nM compound, category of percentage degradation

Row | percent degradation of TPM3-TRKA protein at 0.01 µM [2, 6] [%] | Compound | pIC50 [1, 5] | further results
1 |  | COc1ccc(COc2ccc(Cn3c(N)nc4cc(-c5cnn(CC(=O)NCCCCCCCCCC(=O)N[C@H](C(=O)N6C[C@H](O)C[C@H]6C(=O)NCc6ccc(-c7scnc7C)cc6)C(C)(C)C)c5)cnc43)cc2OC)cc1 [CPD-511, (2S,4R)-1-((S)-2-(10-(2-(4-(2-amino-3-(3-methoxy-4-((4-methoxybenzyl)oxy)benzyl)-3H-imidazo[4,5-b]505yridine-6-yl)-1H-pyrazol-1-yl)acetamido)decanamido)-3,3-dimethylbutanoyl)-4-hydroxy-N-(4-(4-methylthiazol-5-yl)benzyl)pyrrolidine-2-carboxamide] |  | pIC50 [1, 3]: 7.07; percent degradation of TPM3-TRKA protein at 0.01 µM [2, 4]: < 50%
2 | > 80 | O=C1CCC(N2C(=O)c3ccc(NCCCCC(=O)N4CCN(c5cccc(-c6cnc7ccc(N8CCC[C@@H]8c8cccc(F)c8)nn67)n5)CC4)cc3C2=O)C(=O)N1 (stereo partly drawn) [TR-115, 2-(2,6-Dioxopiperidin-3-yl)-5-((5-(4-(6-(6-((R)-2-(3-fluorophenyl)pyrrolidin-1-yl)imidazo[1,2-b]pyridazin-3-yl)pyridin-2-yl)piperazin-1-yl)-5-oxopentyl)amino) isoindoline-1,3-dione] | 9.05 | 
3 | > 80 | O=C1CCC(N2C(=O)c3ccc(N4CCOC(CN5CCN(c6ccc(C(=O)Nc7n[nH]c8ccc(Cc9cc(F)cc(F)c9)cc78)c(NC7CCOCC7)c6)CC5)C4)cc3C2=O)C(=O)N1 (centres unmarked) [TR-282, N-(5-(3,5-difluorobenzyl)-1H-indazol-3-yl)-4-(4-((4-(2-(2,6-dioxopiperidin-3-yl)-1,3-dioxoisoindolin-5-yl)morpholin-2-yl)methyl)piperazin-1-yl)-2-((tetrahydro-2H-pyran-4-yl)amino)benzamide] | 8.20 | 
4 |  | Cn1c(=O)n(C2CCC(=O)NC2=O)c2ccc(NCCN3CCN(c4ccc(C(=O)Nc5n[nH]c6ccc(Cc7cc(F)cc(F)c7)cc56)c(NC5CCOCC5)c4)CC3)cc21 (centres unmarked) [TR-324, N-(5-(3,5-difluorobenzyl)-1H-indazol-3-yl)-4-(4-(2-((1-(2,6-dioxopiperidin-3-yl)-3-methyl-2-oxo-2,3-dihydro-1H-benzo[d]imidazol-5-yl)amino)ethyl)piperazin-1-yl)-2-((tetrahydro-2H-pyran-4-yl)amino)benzamide] |  | pIC50 ([1]; KM12, 72 h): 8.89; percent degradation of TPM3-TRKA protein at 0.01 µM ([2]; KM12, 16 h): > 80%
5 |  | COc1ccc(COc2ccc(Cn3c(N)nc4cc(-c5cnn(CC(=O)NCCCCCCCC(=O)N[C@H](C(=O)N6C[C@H](O)C[C@H]6C(=O)NCc6ccc(-c7scnc7C)cc6)C(C)(C)C)c5)cnc43)cc2OC)cc1 [CPD-510, (2S,4R)-1-((S)-2-(8-(2-(4-(2-amino-3-(3-methoxy-4-((4-methoxybenzyl)oxy)benzyl)-3H-imidazo[4,5-b]pyridin-6-yl)-1H-pyrazol-1-yl)acetamido)octanamido)-3,3-dimethylbutanoyl)-4-hydroxy-N-(4-(4-methylthiazol-5-yl)benzyl)pyrrolidine-2-carboxamide] |  | pIC50 [1, 3]: 7.23; percent degradation of TPM3-TRKA protein at 0.01 µM [2, 4]: < 50%
6 | 50 to 80 | O=C1CCC(N2C(=O)c3cccc(NCCOCCOCCOCCC(=O)N4CCN(c5cccc(-c6cnc7ccc(N8CCC[C@@H]8c8cccc(F)c8)nn67)n5)CC4)c3C2=O)C(=O)N1 (stereo partly drawn) [CPD-010, 2-(2,6-Dioxopiperidin-3-yl)-4-((2-(2-(2-(3-(4-(6-(6-((R)-2˜ (3-fluorophenyl)pyrrolidin-1-yl)imidazo[1,2-b]pyridazin-3-yl)pyridin-2-yl)piperazin-1-yl)-3-oxopropoxy)ethoxy)ethoxy)ethyl)amino) isoindoline-1,3-dione] |  | viability of KM12 cells ([1]; 500 nM, 12-point 2-fold serial dilution, 3 days (FIG. 4A)): inhibited the viability of KM12 cells
7 | > 80 | O=C1CCC(N2C(=O)c3ccc(CN4CC(CN5CCN(c6cccc(-c7cnc8ccc(N9CCC[C@@H]9c9cccc(F)c9)nn78)n6)CC5)C4)cc3C2=O)C(=O)N1 (stereo partly drawn) [TR-248, 2-(2,6-Dioxopiperidin-3-yl)-5-((3-((4-(6-(6-((R)-2-(3-fluorophenyl)pyrrolidin-1-yl)imidazo[1,2-b]pyridazin-3-yl)pyridin-2-yl)piperazin-1-yl)methyl)azetidin-1-yl)methyl)isoindoline-1,3-dione] | 7.56 | 
8 | > 80 | Cn1c(=O)n(C2CCC(=O)NC2=O)c2ccc(CCCCN3CCN(c4ccc(C(=O)Nc5n[nH]c6ccc(Cc7cc(F)cc(F)c7)cc56)c(NC5CCOCC5)c4)CC3)cc21 (stereo not drawn) [TR-320, N—(S-(3,5-difluorobenzyl)-1H-indazol-3-yl)-4-(4-(4-(1-(2,6-dioxopiperidin-3-yl)-3-methyl-2-oxo-2,3-dihydro-1H-benzo[d]imidazol-5-yl)butyl)piperazin-1-yl)-2-((tetrahydro-2H-pyran-4-yl)amino)benzamide] | 8.85 | 
9 | > 80 | O=C1CCC(N2C(=O)c3ccc(CN4CC(CN5CCN(c6ccc(C(=O)Nc7n[nH]c8ccc(Cc9cc(F)cc(F)c9)cc78)c(NC7CCOCC7)c6)CC5)C4)cc3C2=O)C(=O)N1 (centres unmarked) [TR-249, N-(5-(3,5-difluorobenzyl)-1H-indazol-3-yl)-4-(4-((1-((2-(2,6-dioxopiperidin-3-yl)-1,3-dioxoisoindolin-5-yl)methyl)azetidin-3-yl)methyl)piperazin-1-yl)-2-((tetrahydro-2H-pyran-4-yl)amino)benzamide] | 7.82 | 
10 | > 80 | Cn1c(=O)n(C2CCC(=O)NC2=O)c2ccc(CCCCN3CCN(c4cccc(-c5cnc6ccc(N7CCC[C@@H]7c7cccc(F)c7)nn56)n4)CC3)cc21 (stereo partly drawn) [TR-259, 3-(5-(4-(4-(6-(6-((R)-2-(3-fluorophenyl)pyrrolidin-1-yl)imidazo[1,2-b]pyridazin-3-yl)pyridin-2-yl)piperazin-1-yl)butyl)-3-methyl-2-oxo-2,3-dihydro-1H-benzo[d]imidazol-1-yl)piperidine-2,6-dione] | 8.28 | 
11 | 50 to 80 | O=C(CN1CCN(c2cccc(-c3cnc4ccc(N5CCC[C@@H]5c5cccc(F)c5)nn34)n2)CC1)NCCOCCNc1cccc2c1C(=O)N(C1CCC(=O)NC1=O)C2=O (stereo partly drawn) [TR-106, N-(2-(2-((2-(2,6-dioxopiperidin-3-yl)-1,3-dioxoisoindolin-4-yl)amino)ethoxy)ethyl)-2-(4-(6-(6-((R)-2-(3-fluorophenyl)pyrrolidin-1-yl)imidazo[1,2-b]pyridazin-3-yl)pyridin-2-yl)piperazin-1-yl)acetamide] | 8.42 | 
12 | > 80 | O=C1CCC(N2C(=O)c3ccc(NCC(=O)N4CCN(c5ccc(C(=O)Nc6n[nH]c7ccc(Cc8cc(F)cc(F)c8)cc67)cc5)CC4)cc3C2=O)C(=O)N1 (centres unmarked) [TR-264, N-(5-(3,5-difluorobenzyl)-1H-indazol-3-yl)-4-(4-((2˜ (2,6-dioxopiperidin-3-yl)-1,3-dioxoisoindolin-5-yl)glycyl)piperazin-1-yl)benzamide] | 8.00 | 
13 |  | O=C1CCC(N2C(=O)c3ccc(NCCCC(=O)N4CCC(Nc5cccc(C(=O)Nc6cnn7ccc(N8CCC[C@@H]8c8cc(F)ccc8F)nc67)n5)CC4)cc3C2=O)C(=O)N1 (stereo partly drawn) [CPD-470, N-(5-((R)-2-(2,5-difluorophenyl)pyrrolidin-1-yl)pyrazolo[1,5-a]pyrimidin-3-yl)-6-((1-(4-((2-(2,6-dioxopiperidin-3-yl)-1,3-dioxoisoindolin-5-yl)amino)butanoyl)piperidin-4-yl)amino)picolinamide] |  | pIC50 [1, 3]: 7.68; percent degradation of TPM3-TRKA protein at 0.01 µM [2, 4]: > 80%
14 | > 80 | Cn1c(=O)n(C2CCC(=O)NC2=O)c2ccc(NCCCN3CCN(c4ccc(C(=O)Nc5n[nH]c6ccc(Cc7cc(F)cc(F)c7)cc56)c(NC5CCOCC5)c4)CC3)cc21 (centres unmarked) [TR-316, N-(5-(3,5-difluorobenzyl)-1H-indazol-3-yl)-4-(4-(3-((1-(2,6-dioxopiperidin-3-yl)-3-methyl-2-oxo-2,3-dihydro-1H-benzo[d]imidazol-5-yl)amino)propyl)piperazin-1-yl)-2-((tetrahydro-2H-pyran-4-yl)amino)benzamide] | 8.64 | 
15 |  | O=C1CCC(N2C(=O)c3ccc(NCCOCCC(=O)N4CCC(Nc5cccc(C(=O)Nc6cnn7ccc(N8CCC[C@@H]8c8cc(F)ccc8F)nc67)n5)CC4)cc3C2=O)C(=O)N1 (stereo partly drawn) [CPD-473, N-(5-((R)-2-(2,5-difluorophenyl)pyrrolidin-1-yl)pyrazolo[1,5-a]pyrimidin-3-yl)-6-((1-(3-(2-((2-(2,6-dioxopiperidin-3-yl)-1,3-dioxoisoindolin-5-yl)amino)ethoxy)propanoyl)piperidin-4-yl)amino)picolinamide] |  | pIC50 [1, 3]: 7.62; percent degradation of TPM3-TRKA protein at 0.01 µM [2, 4]: > 80%
16 | > 80 | O=C1CCC(N2C(=O)c3ccc(N4CC(OC5CCN(c6cccc(-c7cnc8ccc(N9CCC[C@@H]9c9cccc(F)c9)nn78)n6)CC5)C4)cc3C2=O)C(=O)N1 (stereo partly drawn) [TR-287, 2-(2,6-dioxopiperidin-3-yl)-5-(3-((1-(6-(6-((R)-2˜ (3-fluorophenyl)pyrrolidin-1-yl)imidazo[1,2-b]pyridazin-3-yl)pyridin-2-yl)piperidin-4-yl)oxy)azetidin-1-yl)isoindoline-1,3-dione] | 7.71 | 

Reference: patent publication US12410171B2, “Tropomyosin receptor kinase (TRK) degradation compounds and methods of use” (Cullgen (Shanghai), Inc., priority 2020, dated 2025)
